Test [1] concerns Staphylococcus aureus. Conditions: 16 μM ferrous sulfate, 12 h, 10^8 CFU/mL. Here is the method:
(§1) Ferrous sulfate aqueous solutions were configured to a final concentration of 16 μM; and prepare 10^8 CFU/mL of Escherichia coli, Listeria monocytogenes, Vibrio Parahemolyticus, Enterobacter sakazakii, Staphylococcus aureus and MRSA. A 96-well plate assay was performed to determine the susceptibility of six pathogenic bacteria to ferrous sulfate, and after 12 h treatment, the total number of bacterial colonies was determined in a drop-plate assay to further investigate the effect of ferrous ions on their inhibition.

Test [2] has as its system Listeria monocytogenes. Conditions: 16 μM ferrous sulfate, 12 h, FIG. 8B. How it is done: as §1
Test [3] deals with Escherichia coli. Particulars: 16 μM ferrous sulfate, 12 h, FIG. 8B. How it is done:
as §1

Test [4] deals with Vibrio Parahemolyticus. Conditions: 16 μM ferrous sulfate, 12 h, FIG. 8B. Here is the method: as §1
Test [5] concerns Enterobacter sakazakii. Particulars: 16 μM ferrous sulfate, 12 h, FIG. 8B. How it is done:
as §1

Test [6] deals with MRSA. Conditions: 16 μM ferrous sulfate, 12 h, 10^8 CFU/mL. Here is the method:
as §1

The test system of test [7] is S. aureus. How it is done:
Ferrous sulfate aqueous solutions were configured to final concentrations of 1, 4, 16, and 64 μM, respectively, and ampicillin and vancomycin as positive controls were configured to 100 μg/mL, as well as ultrapure water without ferrous sulfate was set as a blank control group. Then 10^8 CFU/mL of S. aureus and MRSA were prepared. The cell suspensions were added with FeSO4 at final concentrations of 0, 1, 4, 16, 64 μM, respectively, and incubated at 37° C. 200 rpm for 12 h. […] After incubation, S. aureus cells were collected by centrifugation, suspended in 1 mL of normal saline solution, and subjected to 10-fold serial dilutions. Finally, 6 dilutions of each condition were plated on TSB agar, and the colony form units (CFU) were enumerated after incubation at 37° C. overnight.

Test [8] concerns Staphylococcus aureus. Conditions: 100 μM, 12 h treatment, approximately 10^8 CFU/mL.
Protocol: To verify the antibacterial activity of ferrous ions against Staphylococcus aureus, the following tests were done: • 1. […] 96-well plate method was used to test the drug sensitivity of 9 ferrous salts against Staphylococcus aureus (approximately 10^8 CFU/mL). After 12 h treatment, the total number of bacterial colonies was determined followed by drop plate method to further investigate the antibacterial effect of iron ions on Staphylococcus aureus.

Turning to ferrous sulfate, the “survival rate of S. aureus” value in test [1] is given as “less than 0.001%”. Also, the bactericidal effect result in test [2], in test [3], in test [4] and in test [5] was “strong bactericidal effect” throughout. Also, the “survival of MRSA” value in test [6] is “less than 0.01%”. In test [7] (37° C., 200 rpm, 12 h, 10^8 CFU/mL), the “MBC (lowest concentration required to kill 99.99% cells of S. aureus)” value was 16 µM. The substance also registered a bactericidal rate in test [7] (at 16 μM (MBC)) of 99.99%. Besides, in test [8], the “inhibition of the growth of S. aureus” value is on record as approximately 100%.

(Values after US11957712B2, “Application of a hydrogel in the preparation of products for the treatment of bacterial infections” (Shaanxi University of Science & Technology, priority 2022, dated 2024).)
